Values of other authors, collected in patent US10551383B2, “Methods of detecting a polypeptide having anaplastic lymphoma kinase activity in kidney cancer” (Cell Signaling Technology, Inc., priority 2010, dated 2020).

System: HGF-stimulated Madin-Darby Canine Kidney (MDCK) cells
Settings: disclosed in U.S. Pub. No. 2008/0300273

SMILES: C[C@@H](Oc1cc(-c2cnn(C3CCNCC3)c2)cnc1N)c1c(Cl)ccc(F)c1Cl [PF-02341066, Crizotinib]
- cell colony scattering: able to reduce cell colony scattering
